# Experiments:
# [1] = system: APP(Thr668) phosphorylation; assay: APP(Thr668) phosphorylation by western blotting in APP695 adenovirus-infected hippocampus primary culture nerve cells; assay type: cell-based, rat; conditions: for concentration at which APP phosphorylation suppressing action was found / APP phosphorylation suppressing action: rat hippocampus primary culture nerve cells, human APP695 adenovirus, 1 day of treatment; for expressed amount of total APP detected with anti-APP antibody 22C11: same cells and treatment, Alsterpaullone 10 μM, Roscovitine 50 μM
# Experimental: The APP gene-containing recombinant adenovirus vector was converted into linear strand by PacI treatment and introduced into HEK293 cells by the Lipofectamine method (LIFE TECHNOLOGIES), and 3 to 5 days thereafter when cells were pealed off from the plate, all of the cells were recovered. The recombinant adenovirus was obtained from the supernatant by repeating freezing-thawing step of the cells. The thus obtained recombinant adenovirus was prepared in a large amount by repeating infection of HEK293 cells and then concentrated and purified by the CsCl method and used in the test.
# The thus obtained PVDF membrane was soaked in Block Ace (Daiichi Pure Chemicals) at 4° C. overnight to carry out blocking. […] The anti-serum obtained by the immunization was used by subjecting to adsorption treatment using an immunogen peptide before introduction of phosphate group and then purifying by affinity chromatography using the phosphate group-introduced antigen peptide. Also, an anti-APP monoclonal antibody 22C11 (Roche Molecular Biochemicals) was used in the determination of total APP amount (combined APP amount of phosphorylated state of APP and non-phosphorylated state of APP). […] After completion of the reaction, washing with PBS-T at room temperature for 10 minutes was repeated four times and then this was subjected to the reaction with a secondary antibody. As the secondary antibody, 20,000 times diluted HRP-labeled anti-rabbit and anti-mouse IgG antibodies (Amersham Pharmacia Biotech) were used.
# Aβ1-40 production = assay: Aβ1-40 production, sandwich ELISA of culture supernatant of APP695 adenovirus-infected hippocampus primary culture nerve cells
# Experimental: The fetus was sterilized with ethanol for disinfection in a clean bench, the total brain was extracted and recovered in a dish containing a serum-free medium (SUMILON, Sumitomo Bakelite), and the hippocampus was extracted using a precision pincette under a stereoscopic microscope. The hippocampus was transferred into a 50 ml tube, tissues were precipitated by standing to discard the supernatant by aspirating and a cell dispersing solution (PBS containing 1% papain, 150 U/ml DNase I, 0.02% L-cysteine, 0.02% BSA and 0.5% glucose) was added thereto, and the mixture was incubated at 37° C. for 15 minutes and then centrifuged (1,000 rpm, 4° C., 5 min). The supernatant was removed by aspiration, 10 ml of the serum-free medium was added to the sediment, pipette treatment was carried out several times, and then cell masses were removed using a filter to obtain a cell suspension. The number of cells was counted using trypan blue, and 1.5×10^5 of the cells were inoculated into a poly-L-lysine-coated 48 well culture plate. In order to effect sufficient differentiation, they were cultured at 37° C. for 10 days in a CO2 incubator and then used in the test.
# Infection with adenovirus was carried out on the 10th day of the culturing. A virus suspension of 1.5×10^8 particles was suitably diluted and added to a medium to an MOI (multiplicity of infection) value of 1,000 based on 1.5×10^5 cells. A sample was recovered on the 4th day of the infection.
# Culture supernatants recovered 24 hours after the addition of compounds to be tested were used as the samples for Aβ production measurement. Amount of Aβ in each supernatant was determined by sandwich ELISA. Firstly, an anti-Aβ monoclonal antibody 6E10 (Wako) diluted to 10 μg/ml with 100 mM phosphate buffer was dispensed in 50 μl/well portions into a plate for ELISA (Maxisorp, Nunc) and allowed to stand overnight at 4° C. to effect adhesion of the 6E10 antibody to the plate. The antibody was recovered on the next day, and 200 μl of Block Ace was added to each well to carry out blocking at 4° C. overnight or more. […] The Aβ for calibration curve preparation was prepared in the following manner. […] A 10 μl portion of the stock solution was transferred into a tube, HFIP was evaporated using a vacuum concentrator and then the residue was again dissolved in 10 μl of DMSO to an Aβ concentration of 1 mg/ml. Serial dilutions of the solution for Aβ calibration curve measurement were prepared within the range of from 0.2 to 10 ng/ml. The plate after the reaction with a sample or Aβ for calibration curve preparation was washed 4 times with the plate washer and then allowed to react with primary antibodies. Polyclonal antibodies R163 (Aβ1-40 specific antibody) and R165 Aβ1-42 specific antibody), which specifically recognize C-terminus of Aβ, were used as the primary antibodies. […] Each antibody was diluted 1,000 times with TBS-T containing 25% Block Ace, dispensed in 60 μl/well portions into the plate and then allowed to undergo the reaction at room temperature for 2 hours. After the reaction, the plate was washed 4 times using the plate washer and then the reaction with a secondary antibody was carried out. An HRP-labeled anti-rabbit IgG antibody was used as the secondary antibody, diluted 8,000 times with TBS-T containing 25% Block Ace and dispensed in 60 μl/well portions, and then the reaction was carried out at room temperature for 2 hours. After completion of the reaction, the plate was washed 4 times using the plate washer and then chemiluminescence by a POD chemiluminescence reagent (Boehringer Mannheim) was measured by ML3000 Plate Reader (Dynatech Laboratories).
# Cdk5 and p25 = biological target: T1, Cdk5 and p25 (Homo sapiens, UniProt Q00535); assay: Cdk5 kinase inhibitory activity, SPA method with biotinylated histone and 33P-ATP; assay type: biochemical; conditions: recombinant human Cdk5/p25 1:1, SPA method
# T1 construct: Complete length of the human Cdk5 gene was amplified from total RNA; made in house; host or cells: Sf9 insect cells (baculovirus)
# Experimental: The total RNA was obtained by adding 1 ml of ISOGEN reagent (Nippon Gene) to 1×10^6 cells, mixing the resulting lysate with ⅕ volume of chloroform, centrifuging the mixture at 15,000 rpm for 10 minutes, mixing the resulting supernatant with ½ volume of 2-propanol and further centrifuging the mixture at 15,000 rpm for 20 minutes. The thus obtained RNA was dissolved in water and, after measurement of its concentration, subjected to PCR reaction (Titans one tube RT-PCR kit (Boehringer Mannheim)). […] Each of the genes was introduced into a Bacmid preparation vector pFASTBac-Hta (Gibco BRL) which had been designed such that His-tag is added to N-terminus, making use of the HindIII and BamHI sites designed in the primers. Each of the genes introduced into pFASTBac was introduced into DH10Bac to carry out recombination in E. coli, thereby obtaining respective recombinant Bacmids. The thus obtained Bacmid was introduced into Sf9 cells using cellfectin reagent (Gibco BRL) to obtain baculovirus. […] Purification of the recombinant proteins was carried out making use of the 6× His tag added to the N-terminus.
# After though washing with the buffer A, this was washed with a buffer B (20 mM Tris-HCl, 1 M KCl, 10 mM 2-ME, 10% glycerol). Finally, fractions eluted with a buffer C (20 mM Tris-HCl, 100 mM KCl, 100 mM imidazole, 10 mM 2-ME, 10% glycerol) were recovered, dialyzed against a sample solution (50 mM HEPES-KOH, 10 mM MgCl2, 2.5 mM EGTA, 0.1 mM PMSF) and used as a purified preparation.
# A 1:1 mixture of the purified Cdk5 protein and purified p25 obtained above was used as the enzyme source at the time of kinase activity measurement. Histone HI (Sigma) was biotinylated and used as the substrate. Biotinylated histone was prepared by allowing histone to react with 10 equivalents of biotin (Ez-link Sulfo-NHS-LC-Biotin, Pierce) as molar ratio in the presence of 50 mM sodium bicarbonate at room temperature for 6 hours. Free biotin was removed by carrying out dialysis using TBS, and the resulting solution was used as the stock solution. Measurement of kinase activity was carried out in accordance with the SPA method (Amersham). […] This was allowed to stand at room temperature for 15 minutes and centrifuged (1,700 rpm, 2 min), and then amount of the isotope incorporated in the substrate was measured by Topcount […].
# Aβ1-42 production = assay: Aβ1-42 production, sandwich ELISA of culture supernatant of APP695 adenovirus-infected hippocampus primary culture nerve cells; assay type: cell-based, rat; conditions: culture supernatant after 1 day of treatment, control DMSO (FIG. 4)
# [2] = culture supernatant after 1 day of treatment, control DMSO (FIG. 3, FIG. 5)
# T1 sequence (Q00535 2-292): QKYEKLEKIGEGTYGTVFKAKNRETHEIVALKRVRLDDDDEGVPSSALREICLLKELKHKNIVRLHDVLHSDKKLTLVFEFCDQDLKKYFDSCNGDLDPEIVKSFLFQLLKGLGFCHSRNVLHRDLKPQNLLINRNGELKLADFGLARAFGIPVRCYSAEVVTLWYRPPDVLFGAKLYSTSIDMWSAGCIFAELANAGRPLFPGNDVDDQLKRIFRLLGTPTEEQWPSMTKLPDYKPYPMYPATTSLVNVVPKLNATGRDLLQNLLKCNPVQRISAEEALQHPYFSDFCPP
# T1 sequence (Q15078 99-307 partner limits assumed): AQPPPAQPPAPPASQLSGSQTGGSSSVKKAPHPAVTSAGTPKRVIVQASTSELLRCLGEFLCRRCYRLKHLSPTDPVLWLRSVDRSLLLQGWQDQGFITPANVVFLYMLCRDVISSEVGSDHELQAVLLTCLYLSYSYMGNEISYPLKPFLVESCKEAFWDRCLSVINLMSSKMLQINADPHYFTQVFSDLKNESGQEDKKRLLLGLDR
Compound,concentration at which APP phosphorylation suppressing action was found [1] [µM],expressed amount of total APP detected with anti-APP antibody 22C11 [1],Aβ1-40 production (Aβ1-40 production; [2]),"Aβ1-40 production (Aβ1-40 production; cells on 7th day co-infected with APP695 adenovirus and Cdk5 D144N adenovirus, supernatant 2 days later, control GFP adenovirus)",Cdk5 inhibitory activity (Cdk5 and p25),APP phosphorylation suppressing action [1],Aβ1-42 production (Aβ1-42 production)
"CC[C@H](CO)Nc1nc(NCc2ccccc2)c2ncn(C(C)C)c2n1 [Roscovitine, reference compound]",50,no changes,confirmed,–,–,–,–
"Cdk5 D144N: dominant negative mutant of Cdk5 (144th aspartic acid converted into asparagine), expressed from adenovirus vector",–,–,–,suppressed,–,–,–
CCn1cnc2c(Nc3cccc(OC)c3)nc(N[C@@H]3CCCC[C@@H]3N)nc21 [A],–,–,confirmed,–,verified the Cdk5 inhibitory activity,found,–
CCn1cnc2c(Nc3cccc(OC)c3)nc(NC3CCC(N)CC3)nc21 (stereo not drawn) [B],–,–,confirmed,–,verified the Cdk5 inhibitory activity,found,–
"O=C1Cc2c([nH]c3ccc([N+](=O)[O-])cc23)-c2ccccc2N1 [Alsterpaullone, reference compound]",10,no changes,suppressed,–,verified the Cdk5 inhibitory activity,–,suppressed
N[C@H]1CC[C@H](Nc2nc(Nc3cccc(Cl)c3)c3ncn(C4CCCC4)c3n2)CC1 [D],–,–,confirmed,–,verified the Cdk5 inhibitory activity,found,–
CCn1cnc2c(Nc3cccc(OC)c3)nc(N[C@H]3CC[C@H](O)CC3)nc21 [C],–,–,confirmed,–,verified the Cdk5 inhibitory activity,found,–

# — US20030100477A1, “Medicinal compositions for suppressing beta-amyloid production” (priority 2002, published 2003)
